Earlier results as cited in patent US20240158750A1, “STROMA-FREE NK CELL DIFFERENTIATION FROM HUMAN PLURIPOTENT STEM CELLS” (The Children's Medical Center Corporation, priority 2021, published 2024).

Experiments:
G9a = conditions: cited from earlier work
DIM5 = biological target: T1, DIM5 (Neurospora crassa, UniProt Q8X225); conditions: cited from earlier work
T1 sequence (Q8X225 1-331): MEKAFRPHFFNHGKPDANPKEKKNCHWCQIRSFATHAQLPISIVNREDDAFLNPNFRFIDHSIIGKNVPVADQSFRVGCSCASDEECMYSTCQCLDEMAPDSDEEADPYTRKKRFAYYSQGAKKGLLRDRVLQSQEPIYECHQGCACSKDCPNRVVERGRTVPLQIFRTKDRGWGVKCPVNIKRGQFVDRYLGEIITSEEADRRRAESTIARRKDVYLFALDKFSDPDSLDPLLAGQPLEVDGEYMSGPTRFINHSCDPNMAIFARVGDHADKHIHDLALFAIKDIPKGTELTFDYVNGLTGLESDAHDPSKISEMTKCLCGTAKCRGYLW

Lys20-specific PRSET7 = biological target: T2, Lys20-specific PRSET7 (Homo sapiens, UniProt Q9NQR1); conditions: cited from earlier work
T2 sequence (Q9NQR1 1-393): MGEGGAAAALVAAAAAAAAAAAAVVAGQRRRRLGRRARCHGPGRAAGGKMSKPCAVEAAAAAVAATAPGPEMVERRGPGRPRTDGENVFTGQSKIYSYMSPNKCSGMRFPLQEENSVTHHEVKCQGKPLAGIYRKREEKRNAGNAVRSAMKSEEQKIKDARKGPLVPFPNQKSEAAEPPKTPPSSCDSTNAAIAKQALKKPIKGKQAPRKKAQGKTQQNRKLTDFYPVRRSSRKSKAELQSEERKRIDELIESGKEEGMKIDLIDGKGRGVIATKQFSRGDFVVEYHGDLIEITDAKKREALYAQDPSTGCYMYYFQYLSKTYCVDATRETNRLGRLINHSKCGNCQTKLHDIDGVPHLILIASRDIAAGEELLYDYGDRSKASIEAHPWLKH

Lys27-specific EZH2 = conditions: cited from earlier work
Lys4-specific SET7/9 = biological target: T3, Lys4-specific SET7/9 (Homo sapiens, UniProt Q8WTS6); conditions: cited from earlier work
T3 sequence (Q8WTS6 1-366): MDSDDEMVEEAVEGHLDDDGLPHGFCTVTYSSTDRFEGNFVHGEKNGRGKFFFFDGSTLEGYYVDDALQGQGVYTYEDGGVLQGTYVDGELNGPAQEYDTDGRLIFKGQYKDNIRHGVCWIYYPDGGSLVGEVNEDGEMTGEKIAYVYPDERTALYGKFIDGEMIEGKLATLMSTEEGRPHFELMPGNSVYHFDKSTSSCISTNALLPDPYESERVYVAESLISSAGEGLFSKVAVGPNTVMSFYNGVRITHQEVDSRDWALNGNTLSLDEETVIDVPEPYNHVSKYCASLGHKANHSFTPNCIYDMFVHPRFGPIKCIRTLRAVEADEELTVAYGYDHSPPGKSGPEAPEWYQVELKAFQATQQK

PKMT G9a = biological target: T4, PKMT G9a (Homo sapiens, UniProt Q96KQ7); conditions: based on Morrison Ki; cited from earlier work
T4 sequence (Q96KQ7 1-1210): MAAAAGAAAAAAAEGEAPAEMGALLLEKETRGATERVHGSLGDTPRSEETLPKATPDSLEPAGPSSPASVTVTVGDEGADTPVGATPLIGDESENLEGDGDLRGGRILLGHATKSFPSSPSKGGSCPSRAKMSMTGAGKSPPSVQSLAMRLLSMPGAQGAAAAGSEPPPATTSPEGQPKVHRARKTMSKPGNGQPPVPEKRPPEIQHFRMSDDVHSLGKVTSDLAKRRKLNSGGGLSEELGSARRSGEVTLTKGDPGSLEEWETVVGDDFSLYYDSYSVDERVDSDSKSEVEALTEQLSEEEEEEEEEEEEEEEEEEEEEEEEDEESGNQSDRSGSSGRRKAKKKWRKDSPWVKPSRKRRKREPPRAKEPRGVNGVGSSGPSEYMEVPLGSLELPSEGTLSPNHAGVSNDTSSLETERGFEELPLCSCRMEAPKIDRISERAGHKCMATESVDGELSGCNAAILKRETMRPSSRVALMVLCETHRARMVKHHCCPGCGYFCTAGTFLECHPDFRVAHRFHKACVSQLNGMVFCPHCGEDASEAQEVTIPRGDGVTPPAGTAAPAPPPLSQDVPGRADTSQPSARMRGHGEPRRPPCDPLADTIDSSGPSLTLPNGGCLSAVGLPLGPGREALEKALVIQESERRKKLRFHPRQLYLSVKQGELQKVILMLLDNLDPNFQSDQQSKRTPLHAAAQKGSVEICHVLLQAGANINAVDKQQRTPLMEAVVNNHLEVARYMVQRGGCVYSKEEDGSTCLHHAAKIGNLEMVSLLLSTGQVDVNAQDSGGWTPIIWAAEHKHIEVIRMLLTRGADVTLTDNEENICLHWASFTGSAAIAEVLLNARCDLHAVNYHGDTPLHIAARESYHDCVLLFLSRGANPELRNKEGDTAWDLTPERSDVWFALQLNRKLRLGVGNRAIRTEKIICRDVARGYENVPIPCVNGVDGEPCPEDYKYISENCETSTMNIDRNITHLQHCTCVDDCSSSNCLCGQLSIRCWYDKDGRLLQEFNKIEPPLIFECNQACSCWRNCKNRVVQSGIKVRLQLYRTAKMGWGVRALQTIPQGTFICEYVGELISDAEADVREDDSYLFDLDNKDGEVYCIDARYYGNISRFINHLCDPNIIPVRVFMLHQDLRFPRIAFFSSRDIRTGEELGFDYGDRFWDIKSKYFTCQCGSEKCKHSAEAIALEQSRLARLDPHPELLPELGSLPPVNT

SET7/9 = biological target: T5, SET7/9 (Homo sapiens, UniProt Q8WTS6); conditions: SET7/9, inactive, ECSD enzymatic assay; cited from earlier work
T5 sequence (Q8WTS6 1-366): T3 sequence (Q8WTS6 1-366)

SET8/PreSET7 = SET8/PreSET7 (Homo sapiens, UniProt Q9NQR1); conditions: SET8/PreSET7, inactive, ECSD enzymatic assay; cited from earlier work
PRMT3 = PRMT3 (Homo sapiens, UniProt O60678); conditions: PRMT3, inactive, ECSD enzymatic assay; cited from earlier work
PRMT3, sequence (O60678 whole entry, species assumed): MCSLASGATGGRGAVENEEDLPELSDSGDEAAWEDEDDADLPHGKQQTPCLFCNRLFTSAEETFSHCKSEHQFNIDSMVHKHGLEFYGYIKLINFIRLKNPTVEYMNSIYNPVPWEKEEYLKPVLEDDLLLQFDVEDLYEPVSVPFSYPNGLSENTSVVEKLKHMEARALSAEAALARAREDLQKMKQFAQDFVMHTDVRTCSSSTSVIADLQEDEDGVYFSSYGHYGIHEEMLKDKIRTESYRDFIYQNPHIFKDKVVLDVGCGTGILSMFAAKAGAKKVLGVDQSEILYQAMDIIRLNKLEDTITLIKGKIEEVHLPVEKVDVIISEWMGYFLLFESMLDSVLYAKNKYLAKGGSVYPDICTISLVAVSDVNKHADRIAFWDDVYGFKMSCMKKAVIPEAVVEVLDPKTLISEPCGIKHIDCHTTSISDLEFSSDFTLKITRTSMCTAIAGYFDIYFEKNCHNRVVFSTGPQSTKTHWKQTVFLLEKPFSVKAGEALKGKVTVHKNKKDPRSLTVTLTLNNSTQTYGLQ

JMJD2E = biological target: T6, JMJD2E (Homo sapiens, UniProt B2RXH2); conditions: ECSD enzymatic assay, cited from earlier work
T6 sequence (B2RXH2 1-506): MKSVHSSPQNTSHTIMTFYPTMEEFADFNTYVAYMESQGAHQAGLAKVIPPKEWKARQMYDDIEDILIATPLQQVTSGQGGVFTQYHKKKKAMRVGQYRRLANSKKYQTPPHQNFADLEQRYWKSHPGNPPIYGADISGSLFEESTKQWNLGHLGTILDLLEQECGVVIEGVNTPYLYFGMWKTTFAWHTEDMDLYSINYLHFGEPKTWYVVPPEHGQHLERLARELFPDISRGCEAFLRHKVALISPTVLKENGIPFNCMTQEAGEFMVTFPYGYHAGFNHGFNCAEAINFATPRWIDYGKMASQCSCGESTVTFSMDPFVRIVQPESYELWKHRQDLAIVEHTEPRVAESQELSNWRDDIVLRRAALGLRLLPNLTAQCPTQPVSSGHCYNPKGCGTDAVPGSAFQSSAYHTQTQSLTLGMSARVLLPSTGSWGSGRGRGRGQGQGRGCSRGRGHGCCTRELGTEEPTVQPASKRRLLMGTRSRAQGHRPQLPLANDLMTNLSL

[1] = biological target: T7, class III isoenzyme SIRT1 (Homo sapiens, UniProt Q96EB6); conditions: cited from earlier work
T7 sequence (Q96EB6 1-747): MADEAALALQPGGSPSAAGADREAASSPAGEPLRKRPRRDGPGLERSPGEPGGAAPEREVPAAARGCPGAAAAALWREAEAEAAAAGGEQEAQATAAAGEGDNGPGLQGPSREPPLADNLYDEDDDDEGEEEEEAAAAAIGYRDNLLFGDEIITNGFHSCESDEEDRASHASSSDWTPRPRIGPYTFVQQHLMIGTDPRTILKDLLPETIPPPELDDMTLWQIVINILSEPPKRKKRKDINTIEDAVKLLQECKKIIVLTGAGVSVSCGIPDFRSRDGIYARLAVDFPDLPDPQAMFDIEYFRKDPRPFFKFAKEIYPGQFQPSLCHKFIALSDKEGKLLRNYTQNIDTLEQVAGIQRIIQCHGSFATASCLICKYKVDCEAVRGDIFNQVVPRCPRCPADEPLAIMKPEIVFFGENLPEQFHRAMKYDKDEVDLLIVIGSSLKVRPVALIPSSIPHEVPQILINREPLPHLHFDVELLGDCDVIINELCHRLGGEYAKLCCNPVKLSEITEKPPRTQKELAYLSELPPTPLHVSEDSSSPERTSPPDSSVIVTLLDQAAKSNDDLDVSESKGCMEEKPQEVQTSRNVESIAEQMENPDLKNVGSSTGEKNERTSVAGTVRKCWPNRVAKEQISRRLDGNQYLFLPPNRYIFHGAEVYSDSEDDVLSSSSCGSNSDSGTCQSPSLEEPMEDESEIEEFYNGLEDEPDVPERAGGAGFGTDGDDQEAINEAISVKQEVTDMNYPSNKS

G9a/GLP = biological target: T8, G9a/GLP (Homo sapiens, UniProt Q96KQ7); conditions: SAM-competitive; cited from earlier work
T8 sequence (Q96KQ7 1-1210): T4 sequence (Q96KQ7 1-1210)

Chaetocin
IC50 (G9a): 2.5 µM | IC50 (DIM5): 3 µM | IC50 (Lys20-specific PRSET7): > 90 µM | IC50 (Lys27-specific EZH2): > 90 µM | IC50 (Lys4-specific SET7/9): > 90 µM

COc1cc2c(NC3CCN(C)CC3)nc(N3CCCN(C)CC3)nc2cc1OCCOCCN(C)C [UNC0321]
fold more potent than BIX01294 (PKMT G9a): ~250 fold | IC50 (SET7/9): > 40 µM | IC50 (SET8/PreSET7): > 40 µM | IC50 (PRMT3): > 40 µM | selectivity (JMJD2E; G9a over JMJD2E): well as JMJD2E (>1000-fold | IC50 (JMJD2E; JMJD2E, inactive): > 40 µM

CCCCc1nc2cc(/C=C/C(=O)NO)ccc2n1CCN(CC)CC [SB939 (Pracinostat)]
activity against the class III isoenzyme SIRT1 [1]: no activity

COc1ccc(C(=O)Oc2ccc(CCn3c(NC(=O)c4ccc(C(F)(F)F)cc4)nc4cc(C(=O)O)ccc43)cc2)cc1 [BIX-01338]
effective conc. (G9a/GLP): G9a/GLP effective conc. = 15 μM
